Reference: patent US20230017045A1, “PYRIDINE AND PYRIMIDINE CARBOXYLATE HERBICIDES AND METHODS OF USE THEREOF” (Dow AgroSciences LLC, priority 2017, published 2023)
Like-named read-outs stand apart in the source and are kept apart here.

System: test plant species
Experiment: Post-emergent herbicidal activity test (greenhouse, foliar spray, visual growth reduction)
Type: in vivo
Conditions: post-emergence, 336 h, 140 g ai/ha
In short: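 Visual scoring 14 d after treatment (0 = no injury, 100 = complete control) against nontreated and solvent-blank plants gave percent growth reduction. Foliar application used a track sprayer delivering 187 L/ha to seedlings at first or second true leaf stage, grown at 23–29 °C day, ~15 h photoperiod.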

[1] = ALOMY: blackgrass (Alopecurus myosuroides), 14 days after application, read-out: Visual Growth Reduction (%) 14 Days After Application, ALOMY
[2] = AMARE: redroot pigweed (Amaranthus retroflexus), 14 days after application, read-out: Visual Growth Reduction (%) 14 Days After Application, AMARE
[3] = AVEFA: wild oat (Avena fatua), 14 days after application, read-out: Visual Growth Reduction (%) 14 Days After Application, AVEFA
[4] = CHEAL: lambsquarters (Chenopodium album), 14 days after application, read-out: Visual Growth Reduction (%) 14 Days After Application, CHEAL
[5] = CIRAR: canada thistle (Cirsium arvense), 14 days after application, read-out: Visual Growth Reduction (%) 14 Days After Application, CIRAR
[6] = CYPES: yellow nutsedge (Cyperus esculentus), 14 days after application, read-out: Visual Growth Reduction (%) 14 Days After Application, CYPES
[7] = DIGSA: crabgrass (Digitaria sanguinalis), 14 days after application, read-out: Visual Growth Reduction (%) 14 Days After Application, DIGSA
[8] = ECHCG: barnyardgrass (Echinochloa crus-galli), 14 days after application, read-out: Visual Growth Reduction (%) 14 Days After Application, ECHCG
[9] = IPOHE: ivy-leaf morning glory (Ipomoea hederacea), 14 days after application, read-out: Visual Growth Reduction (%) 14 Days After Application, IPOHE
[10] = KCHSC: kochia (Bassia scoparia), 14 days after application, read-out: Visual Growth Reduction (%) 14 Days After Application, KCHSC
[11] = ORYSA: rice (Oryza sativa), 14 days after application, read-out: Visual Growth Reduction (%) 14 Days After Application, ORYSA
[12] = SETFA: giant foxtail (Setaria faberi), 14 days after application, read-out: Visual Growth Reduction (%) 14 Days After Application, SETFA
[13] = SORVU: grain sorghum (Sorghum vulgare), 14 days after application, read-out: Visual Growth Reduction (%) 14 Days After Application, SORVU
[14] = STEME: common chickweed (Stellaria media), 14 days after application, read-out: Visual Growth Reduction (%) 14 Days After Application, STEME
[15] = TRZAS: wheat, spring (Triticum aestivum), 14 days after application, read-out: Visual Growth Reduction (%) 14 Days After Application, TRZAS
[16] = blackgrass (Alopecurus myosuroides), 14 Days After Application, read-out: Visual Growth Reduction (%) ALOMY
[17] = canada thistle (Cirsium arvense), 14 Days After Application, read-out: Visual Growth Reduction (%) CIRAR
[18] = crabgrass (Digitaria sanguinalis), 14 Days After Application, read-out: Visual Growth Reduction (%) DIGSA
[19] = lambsquarters (Chenopodium album), 14 Days After Application, read-out: Visual Growth Reduction (%) CHEAL
[20] = redroot pigweed (Amaranthus retroflexus), 14 Days After Application, read-out: Visual Growth Reduction (%) AMARE
[21] = wild oat (Avena fatua), 14 Days After Application, read-out: Visual Growth Reduction (%) AVEFA
[22] = yellow nutsedge (Cyperus esculentus), 14 Days After Application, read-out: Visual Growth Reduction (%) CYPES

Compound `O=C(O)c1nc(-c2ccc(C(F)(F)F)cc2Cl)ccc1F` [F132, 6-(2-Chloro-4-(trifluoromethyl)phenyl)-3-fluoropicolinic acid] has a pest or weed control at 140 g/ha [1] of 0 to 29%, a pest or weed control at 140 g/ha [2] of 95 to 100% and a pest or weed control at 140 g/ha [3] of 0 to 29%. It also gave a pest or weed control at 140 g/ha [4] of 95 to 100%, a pest or weed control at 140 g/ha [5] of 85 to 94% and a pest or weed control at 140 g/ha [6] of 0 to 29%. For the same compound, the pest or weed control at 140 g/ha [7] was 75 to 84%, the pest or weed control at 140 g/ha [8] was 60 to 74% and the pest or weed control at 140 g/ha [9] was 95 to 100%. For the same compound, the pest or weed control at 140 g/ha [10] was 75 to 84%, the pest or weed control at 140 g/ha [11] was 0 to 29% and the pest or weed control at 140 g/ha [12] was 75 to 84%. For the same compound, the pest or weed control at 140 g/ha [13] was 85 to 94%, the pest or weed control at 140 g/ha [14] was 0 to 29% and the pest or weed control at 140 g/ha [15] was 0 to 29%.

Work on `O=C(O)c1nc(-c2cc3c(cc2Cl)OC(F)(F)O3)ccc1Cl` [F126] yielded a pest or weed control at 140 g/ha [1] of 0 to 29%, a pest or weed control at 140 g/ha [2] of 95 to 100% and a pest or weed control at 140 g/ha [3] of 0 to 29%. For the same compound, the pest or weed control at 140 g/ha [4] was 85 to 94%, the pest or weed control at 140 g/ha [5] was 75 to 84% and the pest or weed control at 140 g/ha [6] was 0 to 29%. The pest or weed control at 140 g/ha [7] was 85 to 94%, the pest or weed control at 140 g/ha [8] was 60 to 74% and the pest or weed control at 140 g/ha [9] was 95 to 100%. The pest or weed control at 140 g/ha [10] was 60 to 74%, the pest or weed control at 140 g/ha [11] was 0 to 29% and the pest or weed control at 140 g/ha [12] was 60 to 74%. It also gave a pest or weed control at 140 g/ha [13] of 75 to 84%, a pest or weed control at 140 g/ha [14] of 0 to 29% and a pest or weed control at 140 g/ha [15] of 75 to 84%.

Work on `COC(=O)c1nc(-c2ccc(OS(C)(=O)=O)cc2)c(F)cc1Cl` [F159, Methyl 3-chloro-5-fluoro-6-(4-((methylsulfonyl)oxy)phenyl)picolinate] yielded a pest or weed control at 140 g/ha [1] of 0 to 29%, a pest or weed control at 140 g/ha [2] of 60 to 74% and a pest or weed control at 140 g/ha [3] of 0 to 29%. For the same compound, the pest or weed control at 140 g/ha [4] was 45 to 59%, the pest or weed control at 140 g/ha [5] was 30 to 44% and the pest or weed control at 140 g/ha [6] was 0 to 29%. The pest or weed control at 140 g/ha [7] was 60 to 74%, the pest or weed control at 140 g/ha [8] was 30 to 44% and the pest or weed control at 140 g/ha [9] was 45 to 59%. For the same compound, the pest or weed control at 140 g/ha [10] was 0 to 29%, the pest or weed control at 140 g/ha [11] was 0 to 29% and the pest or weed control at 140 g/ha [12] was 60 to 74%. It also gave a pest or weed control at 140 g/ha [13] of 30 to 44%, a pest or weed control at 140 g/ha [14] of 0 to 29% and a pest or weed control at 140 g/ha [15] of 0 to 29%.

In the case of `COC(=O)c1nc(-c2ccc(C3(C#N)CC3)cc2Cl)c(F)cc1Cl` [F237, Methyl 3-chloro-6-(2-chloro-4-(1-cyanocyclopropyl)phenyl)-5-fluoropicolinate], the pest or weed control at 140 g/ha [8] is reported as 30 to 44%, the pest or weed control at 140 g/ha [9] is reported as 95 to 100% and the pest or weed control at 140 g/ha [10] is reported as 85 to 94%. It also gave a pest or weed control at 140 g/ha [11] of 0 to 29%, a pest or weed control at 140 g/ha [12] of 75 to 84% and a pest or weed control at 140 g/ha [13] of 85 to 94%. The pest or weed control at 140 g/ha [14] was 30 to 44%, the pest or weed control at 140 g/ha [15] was 45 to 59% and the pest or weed control at 140 g/ha [16] was 0 to 29%. It also gave a pest or weed control at 140 g/ha [17] of 95 to 100%, a pest or weed control at 140 g/ha [18] of 85 to 94% and a pest or weed control at 140 g/ha [19] of 85 to 94%. For the same compound, the pest or weed control at 140 g/ha [20] was 95 to 100%, the pest or weed control at 140 g/ha [21] was 45 to 59% and the pest or weed control at 140 g/ha [22] was 45 to 59%.

`COC(=O)c1nc(-c2ccc(C(F)(F)F)c(F)c2)ccc1Cl` [F306, Methyl 3-chloro-6-(3-fluoro-4-(trifluoromethyl)phenyl)picolinate] was tested, and the pest or weed control at 140 g/ha [8] was 0 to 29%, the pest or weed control at 140 g/ha [9] was 95 to 100% and the pest or weed control at 140 g/ha [10] was 0 to 29%. For the same compound, the pest or weed control at 140 g/ha [11] was 0 to 29%, the pest or weed control at 140 g/ha [12] was 0 to 29% and the pest or weed control at 140 g/ha [13] was 60 to 74%. It also gave a pest or weed control at 140 g/ha [14] of 0 to 29%, a pest or weed control at 140 g/ha [15] of 0 to 29% and a pest or weed control at 140 g/ha [16] of 0 to 29%. The pest or weed control at 140 g/ha [17] was 0 to 29%, the pest or weed control at 140 g/ha [18] was 75 to 84% and the pest or weed control at 140 g/ha [19] was 0 to 29%. It also gave a pest or weed control at 140 g/ha [20] of 30 to 44%, a pest or weed control at 140 g/ha [21] of 0 to 29% and a pest or weed control at 140 g/ha [22] of 45 to 59%.
